Laboratory results reported in ChEMBL document CHEMBL1201861, “Genomics of Drug Sensitity in Cancer screening data, Wellcome Trust Sanger Institute”.

Columns and labels:
Assay in all cases: cells
Details in all cases: Homo sapiens
LB831-BLC = format: functional, cell-based;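 further: growth inhibition of LB831-BLC cells, read out with a cell viability assay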
Description: SANGER: Inhibition of human LB831-BLC cell growth in a cell viability assay.

KY821 = format: functional, cell-based;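 further: growth inhibition of human KY821 cells, read out by a cell viability assay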
Description: SANGER: Inhibition of human KY821 cell growth in a cell viability assay.

JAR = format: functional, cell-based;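 further: growth inhibition of human JAR cells determined with a cell viability assay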
Description: SANGER: Inhibition of human JAR cell growth in a cell viability assay.

COLO-668 = format: functional, cell-based
Description: SANGER: Inhibition of human COLO-668 cell growth in a cell viability assay.

MSTO-211H = format: functional, cell-based
Description: SANGER: Inhibition of human MSTO-211H cell growth in a cell viability assay.

C2BBe1 = format: functional, cell-based;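 further: growth inhibition of C2BBe1 cells, read out through a viability assay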
Description: SANGER: Inhibition of human C2BBe1 cell growth in a cell viability assay.

COLO-829 = format: functional, cell-based
Description: SANGER: Inhibition of human COLO-829 cell growth in a cell viability assay.

HuTu80 = format: functional, cell-based, HUTU-80;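 further: growth inhibition of HuTu80 human cells, determined with a cell viability readout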
Description: SANGER: Inhibition of human HUTU-80 cell growth in a cell viability assay.

KE-37 = format: functional, cell-based;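 further: growth inhibition of KE-37 cells, read out with a cell viability assay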
Description: SANGER: Inhibition of human KE-37 cell growth in a cell viability assay.

EW-11 = format: functional, cell-based;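 further: growth inhibition of human EW-11 cells, measured with a cell viability assay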
Description: SANGER: Inhibition of human EW-11 cell growth in a cell viability assay.

SW684 = format: functional, cell-based;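 further: growth inhibition of human SW684 cells, measured by a cell viability assay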
Description: SANGER: Inhibition of human SW684 cell growth in a cell viability assay.

KARPAS-299 = format: functional, cell-based
Description: SANGER: Inhibition of human KARPAS-299 cell growth in a cell viability assay.

NCI-H1355 = format: functional, cell-based;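 further: growth inhibition of human NCI-H1355 cells, read out by a cell viability assay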
Description: SANGER: Inhibition of human NCI-H1355 cell growth in a cell viability assay.

MHH-NB-11 = format: functional, cell-based;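 further: growth inhibition of human MHH-NB-11 cells, read out by a cell viability assay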
Description: SANGER: Inhibition of human MHH-NB-11 cell growth in a cell viability assay.

BB49-HNC = format: functional, cell-based;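 further: cell viability assay read-out, reported as inhibition of BB49-HNC cell growth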
Description: SANGER: Inhibition of human BB49-HNC cell growth in a cell viability assay.

DSH1 = format: functional, cell-based;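 further: growth inhibition of human DSH1 cells, measured with a cell viability readout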
Description: SANGER: Inhibition of human DSH1 cell growth in a cell viability assay.

GI-ME-N = format: functional, cell-based;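 further: growth inhibition of human GI-ME-N cells, read out with a cell viability assay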
Description: SANGER: Inhibition of human GI-ME-N cell growth in a cell viability assay.

OCUB-M = format: functional, cell-based;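 further: growth inhibition of the cancer cell line, read out through a cell viability assay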
Description: SANGER: Inhibition of human OCUB-M cell growth in a cell viability assay.

Mo = format: functional, cell-based
Description: SANGER: Inhibition of human Mo-T cell growth in a cell viability assay.

EKVX = format: functional, cell-based;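 further: growth inhibition of human EKVX cells, read out with a cell viability assay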
Description: SANGER: Inhibition of human EKVX cell growth in a cell viability assay.

LU-134-A = format: functional, cell-based
Description: SANGER: Inhibition of human LU-134-A cell growth in a cell viability assay.

SW 962 = format: functional, cell-based;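 further: growth inhibition of human SW962 cells, read out by a cell viability assay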
Description: SANGER: Inhibition of human SW962 cell growth in a cell viability assay.

NH-12 = format: functional, cell-based;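 further: growth inhibition of NH-12 cells, read out with a cell viability assay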
Description: SANGER: Inhibition of human NH-12 cell growth in a cell viability assay.

COLO-320-HSR = format: functional, cell-based;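 further: growth inhibition of COLO-320-HSR cells, determined with a cell viability assay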
Description: SANGER: Inhibition of human COLO-320-HSR cell growth in a cell viability assay.

NB10 = format: functional, cell-based;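 further: growth inhibition of NB10 cells, read out by a cell viability assay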
Description: SANGER: Inhibition of human NB10 cell growth in a cell viability assay.

BV-173 = format: functional, cell-based
Description: SANGER: Inhibition of human BV-173 cell growth in a cell viability assay.

IST-MES1 = format: functional, cell-based;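 further: growth inhibition of IST-MES1 cells, measured with a cell viability assay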
Description: SANGER: Inhibition of human IST-MES1 cell growth in a cell viability assay.

TGBC24TKB = format: functional, cell-based;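 further: growth inhibition of human TGBC24TKB cells, read out with a cell viability assay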
Description: SANGER: Inhibition of human TGBC24TKB cell growth in a cell viability assay.

MPP-89 = format: functional, cell-based;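 further: growth inhibition of human MPP-89 cells, read out with a cell viability assay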
Description: SANGER: Inhibition of human MPP-89 cell growth in a cell viability assay.

ALL-PO = format: functional, cell-based;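 further: growth inhibition of ALL-PO cells, read out by a cell viability assay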
Description: SANGER: Inhibition of human ALL-PO cell growth in a cell viability assay.

LS-513 = format: functional, cell-based
Description: SANGER: Inhibition of human LS-513 cell growth in a cell viability assay.

BB30-HNC = format: functional, cell-based;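 further: growth inhibition of the cultured cell line, read out by a cell viability assay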
Description: SANGER: Inhibition of human BB30-HNC cell growth in a cell viability assay.

NB6 = format: functional, cell-based;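 further: growth inhibition of NB6 cells, read out by a cell viability assay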
Description: SANGER: Inhibition of human NB6 cell growth in a cell viability assay.

EW-3 = format: functional, cell-based;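 further: cell viability assay read-out, IC50 reflects inhibition of growth of the EW-3 cells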
Description: SANGER: Inhibition of human EW-3 cell growth in a cell viability assay.

COR-L88 = format: functional, cell-based;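 further: growth inhibition of COR-L88 cells, read out with a cell viability assay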
Description: SANGER: Inhibition of human COR-L88 cell growth in a cell viability assay.

LS-411N = format: functional, cell-based
SK-UT-1 = format: functional, cell-based;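 further: growth inhibition of SK-UT-1 cells, measured by a cell viability assay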
Description: SANGER: Inhibition of human SK-UT-1 cell growth in a cell viability assay.

LB373-MEL-D = format: functional, cell-based;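 further: growth inhibition of the cell line, read out in a cell viability assay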
Description: SANGER: Inhibition of human LB373-MEL-D cell growth in a cell viability assay.

SHP77 = format: functional, cell-based, SHP-77;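 further: growth inhibition of human SHP-77 cells measured by a cell viability assay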
Description: SANGER: Inhibition of human SHP-77 cell growth in a cell viability assay.

CW-2 = format: functional, cell-based;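 further: growth inhibition of CW-2 cells, read out by a cell viability assay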
Description: SANGER: Inhibition of human CW-2 cell growth in a cell viability assay.

NKM-1 = format: functional, cell-based;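 further: growth inhibition of NKM-1 cells, read out with a cell viability assay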
Description: SANGER: Inhibition of human NKM-1 cell growth in a cell viability assay.

Lu-65 = format: functional, cell-based;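 further: growth inhibition of Lu-65 cancer cells, read out by a cell viability assay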
Description: SANGER: Inhibition of human LU-65 cell growth in a cell viability assay.

LNCaP-Clone-FGC = format: functional, cell-based
Description: SANGER: Inhibition of human LNCaP-Clone-FGC cell growth in a cell viability assay.

COLO-800 = format: functional, cell-based;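 further: growth inhibition of COLO-800 cells, read out with a cell viability assay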
Description: SANGER: Inhibition of human COLO-800 cell growth in a cell viability assay.

D283 Med = format: functional, cell-based
Description: SANGER: Inhibition of human D-283MED cell growth in a cell viability assay.

RH-1 = format: functional, cell-based;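 further: growth inhibition of human RH-1 cells, read out with a cell viability assay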
Description: SANGER: Inhibition of human RH-1 cell growth in a cell viability assay.

NCI-H526 = format: functional, cell-based;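 further: growth inhibition of the human NCI-H526 cell line, measured by a cell viability assay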
Description: SANGER: Inhibition of human NCI-H526 cell growth in a cell viability assay.

COLO-684 = format: functional, cell-based
Description: SANGER: Inhibition of human COLO-684 cell growth in a cell viability assay.

NCI-H1650 = format: functional, cell-based;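 further: growth inhibition of human NCI-H1650 cells measured by a cell viability assay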
Description: SANGER: Inhibition of human NCI-H1650 cell growth in a cell viability assay.

CP66-MEL = format: functional, cell-based;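 further: growth inhibition of CP66-MEL cells determined in a cell viability assay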
Description: SANGER: Inhibition of human CP66-MEL cell growth in a cell viability assay.

A498 = format: functional, cell-based;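 further: growth inhibition of human A498 cells, read out with a cell viability assay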
Description: SANGER: Inhibition of human A498 cell growth in a cell viability assay.

LB771-HNC = format: functional, cell-based;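 further: growth inhibition of LB771-HNC human cells, read out with a cell viability assay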
Description: SANGER: Inhibition of human LB771-HNC cell growth in a cell viability assay.

TE-8 = format: functional, cell-based;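 further: growth inhibition of TE-8 cells, measured with a cell viability readout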
Description: SANGER: Inhibition of human TE-8 cell growth in a cell viability assay.

D-263MG = format: functional, cell-based
Description: SANGER: Inhibition of human D-263MG cell growth in a cell viability assay.

EW-18 = format: functional, cell-based;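 further: growth inhibition of EW-18 cells, read out by a cell viability assay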
Description: SANGER: Inhibition of human EW-18 cell growth in a cell viability assay.

NCI-H1092 = format: functional, cell-based;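 further: cell growth inhibition measured with a cell viability assay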
Description: SANGER: Inhibition of human NCI-H1092 cell growth in a cell viability assay.

HAL-01 = format: functional, cell-based;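 further: growth inhibition of human HAL-01 cells, read out with a cell viability assay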
Description: SANGER: Inhibition of human HAL-01 cell growth in a cell viability assay.

L-428 = format: functional, cell-based
Description: SANGER: Inhibition of human L-428 cell growth in a cell viability assay.

NCI-H510A = format: functional, cell-based;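 further: growth inhibition of NCI-H510A cells, read out with a cell viability assay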
Description: SANGER: Inhibition of human NCI-H510A cell growth in a cell viability assay.

OVCAR-4 = format: functional, cell-based;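 further: growth inhibition of human OVCAR-4 cells, measured with a cell viability assay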
Description: SANGER: Inhibition of human OVCAR-4 cell growth in a cell viability assay.

LXF-289 cell line = format: functional, cell-based
Description: SANGER: Inhibition of human LXF-289 cell growth in a cell viability assay.

TE-1 = format: functional, cell-based;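 further: growth inhibition of the human TE-1 cell line, read out with a cell viability assay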
Description: SANGER: Inhibition of human TE-1 cell growth in a cell viability assay.

LB1047-RCC = format: functional, cell-based
Description: SANGER: Inhibition of human LB1047-RCC cell growth in a cell viability assay.

BT-474 = format: functional, cell-based
Description: SANGER: Inhibition of human BT-474 cell growth in a cell viability assay.

HL-60 = format: functional, cell-based
Description: SANGER: Inhibition of human HL-60 cell growth in a cell viability assay.

Structure (SMILES): CCNC(=O)c1noc(-c2cc(C(C)C)c(O)cc2O)c1-c1ccc(CN2CCOCC2)cc1 [LUMINESPIB]
- IC50 (LB831-BLC): 32.2 nM
- IC50 (KY821): > 256 nM
- IC50 (JAR): > 256 nM
- IC50 (COLO-668): 79.8 nM
- IC50 (MSTO-211H): > 256 nM
- IC50 (C2BBe1): 199 nM
- IC50 (COLO-829): > 256 nM
- IC50 (HuTu80): 20 nM
- IC50 (KE-37): 56.8 nM
- IC50 (EW-11): 75.4 nM
- IC50 (SW684): > 256 nM
- IC50 (KARPAS-299): 230 nM
- IC50 (NCI-H1355): 24 nM
- IC50 (MHH-NB-11): 254 nM
- IC50 (BB49-HNC): 10.8 nM
- IC50 (DSH1): 62.7 nM
- IC50 (GI-ME-N): 74.3 nM
- IC50 (OCUB-M): 39.6 nM
- IC50 (Mo): > 256 nM
- IC50 (EKVX): 105 nM
- IC50 (LU-134-A): 57.1 nM
- IC50 (SW 962): 28.5 nM
- IC50 (NH-12): 44.4 nM
- IC50 (COLO-320-HSR): 185 nM
- IC50 (NB10): 237 nM
- IC50 (BV-173): 34.3 nM
- IC50 (IST-MES1): > 256 nM
- IC50 (TGBC24TKB): > 256 nM
- IC50 (MPP-89): 97.2 nM
- IC50 (ALL-PO): 17.3 nM
- IC50 (LS-513): 74.6 nM
- IC50 (BB30-HNC): 9.52 nM
- IC50 (NB6): > 256 nM
- IC50 (EW-3): 175 nM
- IC50 (COR-L88): 171 nM
- IC50 (LS-411N): 37.3 nM
- IC50 (SK-UT-1): 32.2 nM
- IC50 (LB373-MEL-D): > 256 nM
- IC50 (SHP77): 145 nM
- IC50 (CW-2): > 256 nM
- IC50 (NKM-1): 5.47 nM
- IC50 (Lu-65): 202 nM
- IC50 (LNCaP-Clone-FGC): 81.7 nM
- IC50 (COLO-800): > 256 nM
- IC50 (D283 Med): > 256 nM
- IC50 (RH-1): 62.3 nM
- IC50 (NCI-H526): 187 nM
- IC50 (COLO-684): 81.6 nM
- IC50 (NCI-H1650): 16.5 nM
- IC50 (CP66-MEL): 78.9 nM
- IC50 (A498): > 256 nM
- IC50 (LB771-HNC): > 256 nM
- IC50 (TE-8): 2.37 nM
- IC50 (D-263MG): 56.8 nM
- IC50 (EW-18): 106 nM
- IC50 (NCI-H1092): 141 nM
- IC50 (HAL-01): > 256 nM
- IC50 (L-428): 77 nM
- IC50 (NCI-H510A): > 256 nM
- IC50 (OVCAR-4): 38.6 nM
- IC50 (LXF-289 cell line): 26.7 nM
- IC50 (TE-1): 15.8 nM
- IC50 (LB1047-RCC): 50.3 nM
- IC50 (BT-474): 70.6 nM
- IC50 (HL-60): 18.1 nM

Structure (SMILES): CO[C@@]12[C@H](COC(N)=O)C3=C(C(=O)C(C)=C(N)C3=O)N1C[C@@H]1N[C@@H]12 [MITOMYCIN]
- IC50 (LB831-BLC): 816 nM
- IC50 (KY821): 1650 nM
- IC50 (JAR): 4560 nM
- IC50 (COLO-668): < 62.5 nM
- IC50 (MSTO-211H): 2820 nM
- IC50 (C2BBe1): 9280 nM
- IC50 (COLO-829): 2090 nM
- IC50 (HuTu80): < 62.5 nM
- IC50 (KE-37): < 62.5 nM
- IC50 (EW-11): 513 nM
- IC50 (SW684): > 16000 nM
- IC50 (KARPAS-299): 1420 nM
- IC50 (NCI-H1355): 117 nM
- IC50 (MHH-NB-11): 193 nM
- IC50 (BB49-HNC): 353 nM
- IC50 (DSH1): 96.5 nM
- IC50 (GI-ME-N): 1390 nM
- IC50 (OCUB-M): 103 nM
- IC50 (Mo): 8910 nM
- IC50 (EKVX): 893 nM
- IC50 (LU-134-A): 46.7 nM
- IC50 (SW 962): 158 nM
- IC50 (NH-12): 139 nM
- IC50 (COLO-320-HSR): 1080 nM
- IC50 (NB10): 81.7 nM
- IC50 (BV-173): < 62.5 nM
- IC50 (IST-MES1): 4150 nM
- IC50 (TGBC24TKB): 710 nM
- IC50 (MPP-89): 991 nM
- IC50 (ALL-PO): 31 nM
- IC50 (LS-513): 1180 nM
- IC50 (BB30-HNC): 30.6 nM
- IC50 (NB6): 2230 nM
- IC50 (EW-3): 61.9 nM
- IC50 (COR-L88): 319 nM
- IC50 (LS-411N): 322 nM
- IC50 (SK-UT-1): 82.8 nM
- IC50 (LB373-MEL-D): 430 nM
- IC50 (SHP77): 1380 nM
- IC50 (CW-2): 7730 nM
- IC50 (NKM-1): < 62.5 nM
- IC50 (Lu-65): 1010 nM
- IC50 (LNCaP-Clone-FGC): 450 nM
- IC50 (COLO-800): 78.7 nM
- IC50 (D283 Med): 221 nM
- IC50 (RH-1): 49.6 nM
- IC50 (NCI-H526): 67.4 nM
- IC50 (COLO-684): 799 nM
- IC50 (NCI-H1650): 283 nM
- IC50 (CP66-MEL): 645 nM
- IC50 (A498): > 16000 nM
- IC50 (LB771-HNC): 780 nM
- IC50 (TE-8): 35.9 nM
- IC50 (D-263MG): 540 nM
- IC50 (EW-18): 3940 nM
- IC50 (NCI-H1092): 3280 nM
- IC50 (HAL-01): 15.7 nM
- IC50 (L-428): 1160 nM
- IC50 (NCI-H510A): 403 nM
- IC50 (OVCAR-4): 697 nM
- IC50 (LXF-289 cell line): 55.4 nM
- IC50 (TE-1): 165 nM
- IC50 (LB1047-RCC): < 62.5 nM
- IC50 (BT-474): 2620 nM
- IC50 (HL-60): 106 nM
